Test results reported in US8580556B2, “Sulfonylurea-responsive repressor proteins” (E. I. du Pont de Nemours and Company, priority 2008, dated 2013).

Key:
[1] = pH 7; cited from earlier work
[2] = test system: tet operator (tetO); assay: Electrophoretic gel mobility shift assay (EMSA), tet operator binding; conditions: ethametsulfuron repressor protein (L7A11) with TetO DNA; FIG. 7
[3] = test system: tetA promoter (PtetA)-lacZ reporter in E. coli KM3; assay type: cell-based; conditions: L1 hits; 20 μg/ml
[4] = test system: tobacco BY-2 cell culture; assay: Tobacco BY-2 cell culture (dMMV-HRA) sulfonylurea resistance; assay type: cell-based, N. tabacum; conditions: 200 ppb chlorsulfuron
Source text: In addition to the leaf assay it was desired to have an in planta assay to enable high throughput screening of SuR libraries for optimal plant functionality. We designed a system similar to the leaf assay but using tobacco BY-2 cell culture in 96-well format. BY-2 cell culture was transformed with a dMMV-HRA construct such that the culture would withstand treatment with target sulfonylurea test compounds.

SMILES	logP [1]	release of repressor from operator sequence by inducer [2]	activator potency compared with the starting ligand Harmony® [3]	growth of dMMV-HRA transformed BY-2 cell line [4]
COC(=O)c1sccc1S(=O)(=O)NC(=O)Nc1nc(C)nc(OC)n1 [Harmony®, thifensulfuron-methyl]	~0.02	–	–	–
Cc1c2c(c(O)c3c(O)cccc13)C(=O)[C@]1(O)C(=O)C(C(N)=O)=C(O)[C@@H](N(C)C)[C@@H]1C2 [atc, anhydrotetracycline]	–	No change in operator release	–	–
CCOC(=O)c1ccccc1S(=O)(=O)NC(=O)Nc1nc(Cl)cc(OC)n1 [chlorimuron, Chlorimuron-ethyl, reference compound]	–	–	more potent activators	–
COc1nc(C)nc(NC(=O)NS(=O)(=O)c2ccccc2Cl)n1 [chlorsulfuron, 2 chloro N ((4 methoxy 6 methy 1,3,5 triazine 2 yl)aminocarbonyl)benzenesulfonamide, reference compound]	–	–	more potent activators	fully resistant
CCOc1nc(NC)nc(NC(=O)NS(=O)(=O)c2ccccc2C(=O)OC)n1 [ethametsulfuron, Ethametsulfuron-methyl, reference compound]	–	inducer preference for operator release	more potent activators	–
